Calls of active or inactive are those of the source. The rule behind the calls is not given here.
Key:
[1] = biological target: Metabotropic glutamate receptor 5 (Rattus norvegicus, UniProt P31424); assay: Negative allosteric modulation of rat mGluR5 expressed in HEK293 assessed as decrease in intracellular calcium incubated for 30 mins by Fluo-6 calcium dye based FLIPR assay; assay type: functional, cell-based
[2] = system: Mus musculus; assay: Antidepressant activity in chronic unpredictable mild stress induced depression C57BL/6J mouse model assessed as change in total distance travelled at 5 mg/kg,IG administration for 3 days by open field test; assay type: functional, organism-based; conditions: time 3.0 day
[3] = system: Mus musculus; assay: Antidepressant activity in chronic unpredictable mild stress induced depression C57BL/6J mouse model assessed as increase in frequency entering the central area at 5 mg/kg,IG administration for 3 days by open field test; assay type: functional, organism-based; conditions: time 3.0 day
[4] = system: Mus musculus; assay: Antidepressant activity in chronic unpredictable mild stress induced depression C57BL/6J mouse model assessed as increase in time spent in central area at 5 mg/kg,IG administration for 3 days by open field test; assay type: functional, organism-based; conditions: time 3.0 day
[5] = system: Mus musculus; assay: Antidepressant activity in chronic unpredictable mild stress induced depression C57BL/6J mouse model assessed as increase in body weight at 5 mg/kg,IG administration for 3 days; assay type: functional, organism-based; conditions: time 3.0 day
[6] = system: Mus musculus; assay: Antidepressant activity in chronic unpredictable mild stress induced depression C57BL/6J mouse model assessed as decrease in immobility time at 5 mg/kg,IG administration for 3 days by forced swimming test; assay type: functional, organism-based; conditions: time 3.0 day
[7] = system: Mus musculus; assay: Antidepressant activity in chronic unpredictable mild stress induced depression C57BL/6J mouse model assessed as decrease in immobility time at 5 mg/kg,IG administration for 3 days by tail suspension test; assay type: functional, organism-based; conditions: time 3.0 day
[8] = system: Mus musculus; assay: Antidepressant activity in chronic unpredictable mild stress induced depression C57BL/6J mouse model assessed as downregulation of CORT level in peripheral serum at 5 mg/kg,IG administration for 3 days by ELISA; assay type: functional, organism-based; conditions: time 3.0 day
[9] = system: Mus musculus; assay: Antidepressant activity in chronic unpredictable mild stress induced depression C57BL/6J mouse model assessed as upregulation of 5-HT level in peripheral serum at 5 mg/kg,IG administration for 3 days by ELISA; assay type: functional, organism-based; conditions: time 3.0 day
[10] = system: Mus musculus; assay: Antidepressant activity in chronic unpredictable mild stress induced depression C57BL/6J mouse model assessed as change in total distance travelled at 5 to 20 mg/kg,IG administration for 3 days by open field test; assay type: functional, organism-based; conditions: dose 5-20 mg/kg, time 3.0 day
[11] = system: Mus musculus; assay: Antidepressant activity in chronic unpredictable mild stress induced depression C57BL/6J mouse model assessed as increase in frequency entering the central area at 10 mg/kg,IG administration for 3 days by open field test; assay type: functional, organism-based; conditions: time 3.0 day
[12] = system: Mus musculus; assay: Antidepressant activity in chronic unpredictable mild stress induced depression C57BL/6J mouse model assessed as increase in time spent in central area at 10 mg/kg,IG administration for 3 days by open field test; assay type: functional, organism-based; conditions: time 3.0 day
[13] = system: Mus musculus; assay: Antidepressant activity in chronic unpredictable mild stress induced depression C57BL/6J mouse model assessed as increase in frequency entering the central area at 20 mg/kg,IG administration for 3 days by open field test; assay type: functional, organism-based; conditions: time 3.0 day
[14] = system: Mus musculus; assay: Antidepressant activity in chronic unpredictable mild stress induced depression C57BL/6J mouse model assessed as increase in time spent in central area at 20 mg/kg,IG administration for 3 days by open field test; assay type: functional, organism-based; conditions: time 3.0 day
[15] = system: Mus musculus; assay: Antidepressant activity in chronic unpredictable mild stress induced depression C57BL/6J mouse model assessed as increase in body weight at 5 to 20 mg/kg,IG administration for 3 days; assay type: functional, organism-based; conditions: dose 5-20 mg/kg, time 3.0 day
[16] = system: Mus musculus; assay: Antidepressant activity in chronic unpredictable mild stress induced depression C57BL/6J mouse model assessed as decrease in immobility time at 5 to 20 mg/kg,IG administration for 3 days by forced swimming test; assay type: functional, organism-based; conditions: dose 5-20 mg/kg, time 3.0 day
[17] = system: Mus musculus; assay: Antidepressant activity in chronic unpredictable mild stress induced depression C57BL/6J mouse model assessed as decrease in immobility time at 5 to 20 mg/kg,IG administration for 3 days by tail suspension test; assay type: functional, organism-based; conditions: dose 5-20 mg/kg, time 3.0 day
[18] = system: Mus musculus; assay: Antidepressant activity in chronic unpredictable mild stress induced depression C57BL/6J mouse model assessed as downregulation of CORT level in peripheral serum at 10 mg/kg,IG administration for 3 days by ELISA; assay type: functional, organism-based; conditions: time 3.0 day
[19] = system: Mus musculus; assay: Antidepressant activity in chronic unpredictable mild stress induced depression C57BL/6J mouse model assessed as downregulation of CORT level in peripheral serum at 20 mg/kg,IG administration for 3 days by ELISA; assay type: functional, organism-based; conditions: time 3.0 day
[20] = system: Mus musculus; assay: Antidepressant activity in chronic unpredictable mild stress induced depression C57BL/6J mouse model assessed as upregulation of 5-HT level in peripheral serum at 20 mg/kg,IG administration for 3 days by ELISA; assay type: functional, organism-based; conditions: time 3.0 day
[21] = system: Mus musculus; assay: Antidepressant activity in chronic unpredictable mild stress induced depression C57BL/6J mouse model assessed as upregulation of PKA phosphorylation in hippocampus at 20 mg/kg,IG administration for 3 days by Western blotting analysis; assay type: functional, organism-based; conditions: time 3.0 day
[22] = system: Mus musculus; assay: Antidepressant activity in chronic unpredictable mild stress induced depression C57BL/6J mouse model assessed as upregulation of BDNF expression in hippocampus at 10 mg/kg,IG administration for 3 days by Western blotting analysis; assay type: functional, organism-based; conditions: time 3.0 day
[23] = system: Mus musculus; assay: Antidepressant activity in chronic unpredictable mild stress induced depression C57BL/6J mouse model assessed as upregulation of BDNF expression in hippocampus at 20 mg/kg,IG administration for 3 days by Western blotting analysis; assay type: functional, organism-based; conditions: time 3.0 day
[24] = system: Mus musculus; assay: Antidepressant activity in chronic unpredictable mild stress induced depression C57BL/6J mouse model assessed as upregulation of TrkB phosphorylation in hippocampus at 10 mg/kg,IG administration for 3 days by Western blotting analysis; assay type: functional, organism-based; conditions: time 3.0 day
[25] = system: Mus musculus; assay: Antidepressant activity in chronic unpredictable mild stress induced depression C57BL/6J mouse model assessed as upregulation of TrkB phosphorylation in hippocampus at 20 mg/kg,IG administration for 3 days by Western blotting analysis; assay type: functional, organism-based; conditions: time 3.0 day
[26] = system: Mus musculus; assay: Antidepressant activity in chronic unpredictable mild stress induced depression C57BL/6J mouse model assessed as upregulation of GluA1 expression in hippocampus at 5 to 20 mg/kg,IG administration for 3 days by Western blotting analysis; assay type: functional, organism-based; conditions: dose 5-20 mg/kg, time 3.0 day
[27] = system: Mus musculus; assay: Antidepressant activity in chronic unpredictable mild stress induced depression C57BL/6J mouse model assessed as upregulation of GluA2 expression in hippocampus at 5 to 20 mg/kg,IG administration for 3 days by Western blotting analysis; assay type: functional, organism-based; conditions: dose 5-20 mg/kg, time 3.0 day
[28] = Toxicity in chronic unpredictable mild stress induced depression C57BL/6J mouse model assessed as change in creatine kinase level in heart at 40 mg/kg,IG administration for 3 days by ELISA; assay type: organism-based; conditions: in vivo, po, 72 h, time 3 day
[29] = Toxicity in chronic unpredictable mild stress induced depression C57BL/6J mouse model assessed as change in AST level in liver at 40 mg/kg,IG administration for 3 days by ELISA; assay type: organism-based; conditions: in vivo, po, 72 h, time 3 day
[30] = Toxicity in chronic unpredictable mild stress induced depression C57BL/6J mouse model assessed as change in ALT level in liver at 40 mg/kg,IG administration for 3 days by ELISA; assay type: organism-based; conditions: in vivo, po, 72 h, time 3 day

Sequence of Metabotropic glutamate receptor 5 (P31424 whole entry): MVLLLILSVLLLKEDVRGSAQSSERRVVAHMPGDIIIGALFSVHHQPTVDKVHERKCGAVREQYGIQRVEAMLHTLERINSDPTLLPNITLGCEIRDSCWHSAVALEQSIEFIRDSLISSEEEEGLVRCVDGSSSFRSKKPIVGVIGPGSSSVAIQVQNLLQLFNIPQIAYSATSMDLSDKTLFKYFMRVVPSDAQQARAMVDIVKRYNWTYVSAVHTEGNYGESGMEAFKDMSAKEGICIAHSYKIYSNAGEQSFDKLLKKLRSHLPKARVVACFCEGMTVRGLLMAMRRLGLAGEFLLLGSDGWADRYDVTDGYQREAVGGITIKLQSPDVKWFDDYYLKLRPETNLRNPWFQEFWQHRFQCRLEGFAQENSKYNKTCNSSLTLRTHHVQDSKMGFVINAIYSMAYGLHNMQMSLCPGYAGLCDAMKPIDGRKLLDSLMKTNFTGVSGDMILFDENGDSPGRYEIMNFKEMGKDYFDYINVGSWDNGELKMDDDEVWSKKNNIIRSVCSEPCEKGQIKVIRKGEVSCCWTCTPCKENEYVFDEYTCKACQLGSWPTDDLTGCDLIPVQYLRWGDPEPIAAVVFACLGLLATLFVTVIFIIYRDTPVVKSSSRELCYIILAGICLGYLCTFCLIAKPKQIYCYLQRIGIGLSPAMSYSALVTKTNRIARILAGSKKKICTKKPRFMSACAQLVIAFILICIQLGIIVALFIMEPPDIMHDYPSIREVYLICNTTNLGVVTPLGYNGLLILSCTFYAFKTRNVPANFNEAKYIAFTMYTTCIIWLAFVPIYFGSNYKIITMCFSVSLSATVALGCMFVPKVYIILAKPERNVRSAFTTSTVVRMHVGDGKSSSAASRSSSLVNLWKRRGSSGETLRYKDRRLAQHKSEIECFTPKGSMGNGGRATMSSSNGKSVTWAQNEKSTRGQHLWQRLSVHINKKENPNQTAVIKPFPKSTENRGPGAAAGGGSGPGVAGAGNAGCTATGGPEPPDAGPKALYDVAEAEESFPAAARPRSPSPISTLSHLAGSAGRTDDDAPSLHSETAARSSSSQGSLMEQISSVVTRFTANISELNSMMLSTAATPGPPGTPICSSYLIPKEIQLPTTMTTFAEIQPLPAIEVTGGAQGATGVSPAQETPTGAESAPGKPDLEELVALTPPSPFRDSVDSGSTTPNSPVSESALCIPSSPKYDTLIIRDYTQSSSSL

Structure (SMILES): Cn1c(C(=O)Nc2ccc(Cl)cc2)cc2c(C#Cc3ccccc3)ncnc21
- IC50 [1]: 622 nM

Structure (SMILES): Cc1ccc(NC(=O)c2cc3c(C#Cc4ccc(F)cc4)ncnc3n2C)cc1
- IC50 [1]: 101 nM

Structure (SMILES): COc1ccc(NC(=O)c2cc3c(C#Cc4ccc(C)cc4)ncnc3n2C)cc1
- IC50 [1]: 356 nM

Structure (SMILES): COc1ccc(C#Cc2ncnc3c2cc(C(=O)Nc2ccc(N(C)C)cc2)n3C)cc1
- IC50 [1]: 824 nM

Structure (SMILES): Cn1c(C(=O)Nc2ccccc2)cc2c(C#Cc3ccccc3)ncnc21
- IC50 [1]: 75.4 nM

Structure (SMILES): Cn1c(C(=O)Nc2ccc(Cl)c(Cl)c2)cc2c(C#Cc3ccccc3)ncnc21
- IC50 [1]: 2030 nM

Structure (SMILES): Cn1c(C(=O)Nc2ccccc2)cc2c(C#Cc3ccc(F)cc3)ncnc21
- IC50 [1]: 62.2 nM

Structure (SMILES): Cn1c(C(=O)Nc2cccc(Cl)c2)cc2c(C#Cc3ccccc3)ncnc21
- IC50 [1]: 529 nM

Structure (SMILES): Cc1nc(C#Cc2ncnc3c2cc(C(=O)Nc2ccccc2)n3C)cs1
- IC50 [1]: 2280 nM

Structure (SMILES): Cn1c(C(=O)Nc2ccc(I)cc2)cc2c(C#Cc3ccccc3)ncnc21
- IC50 [1]: 194 nM

Structure (SMILES): Cn1c(C(=O)Nc2ccc(Cl)cc2)cc2c(C#Cc3ccc(F)cc3)ncnc21
- IC50 [1]: 248 nM

Structure (SMILES): COc1ccc(NC(=O)c2cc3c(C#Cc4csc(C)n4)ncnc3n2C)cc1
- IC50 [1]: 236 nM

Structure (SMILES): Cn1c(C(=O)Nc2ccc(C(C)(C)C)cc2)cc2c(C#Cc3ccccn3)ncnc21
- IC50 [1]: 2030 nM

Structure (SMILES): Cc1ccc(C#Cc2ncnc3c2cc(C(=O)Nc2ccc(C)cc2)n3C)cc1
- IC50 [1]: 947 nM

Structure (SMILES): Cn1c(C(=O)Nc2ccc(C(C)(C)C)cc2)cc2c(C#Cc3ccc(F)cc3)ncnc21
- IC50 [1]: 2340 nM

Structure (SMILES): Cc1nc(C#Cc2ccnc(Cl)c2)c(C)n1-c1ccc(F)cc1 [BASIMGLURANT]
- IC50 [1]: 4.3 nM

Structure (SMILES): CNCCC(Oc1ccc(C(F)(F)F)cc1)c1ccccc1 (configuration not stated)
- Activity [2]: inactive
- Activity [3]: Active
- Activity [4]: Active
- Activity [5]: Active
- Activity [6]: Active
- Activity [7]: Active
- Activity [8]: Active
- Activity [9]: Active

Structure (SMILES): Cc1ccc(C#Cc2ncnc3c2cc(C(=O)Nc2ccccc2)n3C)cc1
- IC50 [1]: 1380 nM

Structure (SMILES): CN(C)c1ccc(NC(=O)c2cc3c(C#Cc4ccc(F)cc4)ncnc3n2C)cc1
- IC50 [1]: 135 nM

Structure (SMILES): Cc1ccc(C#Cc2ncnc3c2cc(C(=O)Nc2ccc(N(C)C)cc2)n3C)cc1
- IC50 [1]: 3760 nM

Structure (SMILES): Cc1ccc(C#Cc2ncnc3c2cc(C(=O)Nc2ccc(C(C)(C)C)cc2)n3C)cc1
- IC50 [1]: > 10000 nM

Structure (SMILES): Cn1c(C(=O)Nc2ccc(C(C)(C)C)cc2)cc2c(C#Cc3ccccc3)ncnc21
- IC50 [1]: 1390 nM

Structure (SMILES): COc1ccc(NC(=O)c2cc3c(C#Cc4ccccc4)ncnc3n2C)cc1
- IC50 [1]: 11.5 nM
- Activity [10]: inactive
- Activity [11]: Active
- Activity [12]: Active
- Activity [13]: Active
- Activity [14]: Active
- Activity [15]: Active
- Activity [16]: Active
- Activity [17]: Active
- Activity [18]: Active
- Activity [19]: Active
- Activity [20]: Active
- Activity [21]: Active
- Activity [22]: Active
- Activity [23]: Active
- Activity [24]: Active
- Activity [25]: Active
- Activity [26]: Active
- Activity [27]: Active
- Activity [28]: Non-Toxic
- Activity [29]: Non-Toxic
- Activity [30]: Non-Toxic

Structure (SMILES): Cc1ccc(NC(=O)c2cc3c(C#Cc4csc(C)n4)ncnc3n2C)cc1
- IC50 [1]: 5570 nM

Structure (SMILES): Cn1c(C(=O)Nc2ccc(F)cc2)cc2c(C#Cc3ccccc3)ncnc21
- IC50 [1]: 63.6 nM

Structure (SMILES): Cn1c(C(=O)Nc2ccc(F)cc2)cc2c(C#Cc3ccc(F)cc3)ncnc21
- IC50 [1]: 90.8 nM

Structure (SMILES): COc1ccc(C#Cc2ncnc3c2cc(C(=O)Nc2ccc(OC)cc2)n3C)cc1
- IC50 [1]: 84 nM

Structure (SMILES): CN(C)c1ccc(NC(=O)c2cc3c(C#Cc4ccccc4)ncnc3n2C)cc1
- IC50 [1]: 125 nM

Structure (SMILES): CN(C)c1ccc(NC(=O)c2cc3c(C#Cc4ccccn4)ncnc3n2C)cc1
- IC50 [1]: 2470 nM

Structure (SMILES): Cn1c(C(=O)Nc2ccc(F)cc2)cc2c(C#Cc3ccccn3)ncnc21
- IC50 [1]: 3180 nM

Structure (SMILES): Cc1ccc(NC(=O)c2cc3c(C#Cc4ccccc4)ncnc3n2C)cc1
- IC50 [1]: 38.9 nM

Structure (SMILES): COc1ccc(NC(=O)c2cc3c(C#Cc4ccc(F)cc4)ncnc3n2C)cc1
- IC50 [1]: 15.2 nM

Structure (SMILES): COc1ccc(C#Cc2ncnc3c2cc(C(=O)Nc2ccccc2)n3C)cc1
- IC50 [1]: 764 nM

Structure (SMILES): Cc1ccc(C#Cc2ncnc3c2cc(C(=O)Nc2ccc(F)cc2)n3C)cc1
- IC50 [1]: 1010 nM

Structure (SMILES): Cn1c(C(=O)Nc2ccc(OC(F)(F)F)cc2)cc2c(C#Cc3ccccc3)ncnc21
- IC50 [1]: 308 nM

Structure (SMILES): COc1ccc(C#Cc2ncnc3c2cc(C(=O)Nc2ccc(C)cc2)n3C)cc1
- IC50 [1]: 241 nM

Structure (SMILES): COc1ccc(C#Cc2ncnc3c2cc(C(=O)Nc2ccc(F)cc2)n3C)cc1
- IC50 [1]: 482 nM

Structure (SMILES): COc1ccc(C#Cc2ncnc3c2cc(C(=O)Nc2ccc(C(C)(C)C)cc2)n3C)cc1
- IC50 [1]: 734 nM

Structure (SMILES): COc1ccc(NC(=O)c2cc3c(C#Cc4ccccn4)ncnc3n2C)cc1
- IC50 [1]: 922 nM
